Here are results for seven molecules from ChEMBL document CHEMBL1201862, “PubChem BioAssay data set” (2004).

In assay [1] the target is T1, Protein skinhead-1 (Caenorhabditis elegans, UniProt P34707).
T1 sequence (P34707 whole entry): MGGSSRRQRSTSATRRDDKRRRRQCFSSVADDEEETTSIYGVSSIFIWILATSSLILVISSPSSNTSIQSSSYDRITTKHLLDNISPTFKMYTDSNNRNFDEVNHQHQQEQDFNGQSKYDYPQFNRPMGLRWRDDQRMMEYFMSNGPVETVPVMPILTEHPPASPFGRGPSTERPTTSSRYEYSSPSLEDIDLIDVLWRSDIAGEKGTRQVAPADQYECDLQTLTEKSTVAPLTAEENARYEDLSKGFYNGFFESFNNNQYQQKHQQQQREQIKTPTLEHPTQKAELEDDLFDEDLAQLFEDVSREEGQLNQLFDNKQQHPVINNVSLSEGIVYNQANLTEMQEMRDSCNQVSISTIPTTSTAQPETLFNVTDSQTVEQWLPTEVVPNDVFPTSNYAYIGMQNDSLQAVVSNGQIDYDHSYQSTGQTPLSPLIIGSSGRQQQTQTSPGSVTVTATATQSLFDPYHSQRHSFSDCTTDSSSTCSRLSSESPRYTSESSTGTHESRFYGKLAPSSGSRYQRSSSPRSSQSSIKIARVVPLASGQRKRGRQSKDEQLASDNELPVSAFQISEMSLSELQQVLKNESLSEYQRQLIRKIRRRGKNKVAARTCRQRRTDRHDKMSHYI
Type of assay: functional.

In assay [2] the test system is HEK293. Kind of assay: cells. The conditions noted are these: Homo sapiens.
In assay [3] the test system is HEK293. The experiment in a line: cells. Conditions: Homo sapiens. The source holds these as a separate data set.
Assay [4] can be described thus: Counterscreen for AddAB inhibitors: absorbance-based bacterial cell-based high throughput dose response assay for inhibitors of bacterial viability. [Related pubchem assays (depositor defined):AID435030, AID449728, AID449731, AID488942, AID488955, AID488956]. It counts as functional. A general note: The purpose of a counterscreen is to sort out artefacts and off-target activity.

For assay [5], the system named is CHO. The experiment in a line: cytotoxicity in TLR9-MyD88 CHO cells, dose response, cytotoxicity control for TLR9-MyD88 binding inhibitor project, cell-based, luminescence (AID 588339).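 Further: CHO cells stably coexpressing TLR9 and MyD88 fusions from primary screen; compound exposure lasted 48 hours before viability readout.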 Conditions: Cricetulus griseus. It counts as functional, hamster.
Assay [6] can be described thus: Fluorescence-based cell-based high throughput dose response assay for inhibitors of the interaction of nucleotide-binding oligomerization domain containing 2 (NOD2) and the receptor-interacting serine-threonine kinase 2 (RIPK2). Type of assay: functional. The conditions noted are these: Homo sapiens.
A short description of assay [7]: Luminescence Cell-Based Dose Retest to Confirm Inhibitors of Cancer Stem Cells. [Related pubchem assays (depositor defined):AID2717, AID2721]. It counts as functional. The conditions noted are these: Homo sapiens.
Assay [8] in a line: inhibitors of clade B AD8 Env fusion, dose response, cell-based, cherry-pick (AID 652062).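 Further: luciferase signal from cell-cell fusion driven by HIV-1 clade B AD8 Env; potency is for inhibitors of fusion seen as a drop in luminescence.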 Type of assay: functional.
Assay [9] can be described thus: off-target signal loss in HeLa-CEM21 co-culture – HeLa F-luc CTL cells, cherry-picked, counter-screen for HIV-1 Env fusion inhibitor project, dose response (AID 652040).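 Further: potency for signal decrease marking cytotoxic or nonspecific inhibition.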 Type of assay: functional, cell-based.
The nature of assay [10]: CEM21 lymphoblast cell cytotoxicity, dose response, cytotoxicity control for viral fusion inhibitor project, CellTiter-Glo luminescence, cherry-picked (AID 652042).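 Further: potency for signal decrease meaning cytotoxicity.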 Type of assay: functional, cell-based. On the technique in general: In ATP-based viability assays light output follows the ATP content of the culture.
Assay [11] can be described thus: inhibitors of HIV Env-driven cell fusion, dose response, cherry-pick (AID 652057). It counts as functional, cell-based.
Assay [12] is described as follows: inhibitors of intracellular T. cruzi replication, confirmation, NIH3T3 host cells, beta-gal luminescence (AID 2044).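 Further: intracellular parasites grown in NIH/3T3 mouse fibroblasts as host cells; luminescent beta-galactosidase reporter signal from transgenic T. cruzi replicating inside host cells; inhibitors lower the luminescence signal.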 Type of assay: functional, cell-based.
Assay [13] can be described thus: ZM109 Env clade C HIV-1 fusion inhibitors, dose response, HeLa effector, CEM target cells, luciferase, cherry-pick (AID 652058). Type of assay: functional, cell-based.
A short description of assay [14]: cytotoxicity toward NIH3T3 fibroblasts, dose response, counter-screen, cell-based, ATP luminescence, mouse fibroblasts (AID 2010).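 Further: cells exposed to compound for about 90 hours before reading.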 Type of assay: functional.
The target of assay [15] is Nuclear receptor subfamily 0 group B member 1 (Homo sapiens, UniProt P51843). Kind of assay: Luminescence-based cell-based high throughput dose response assay for inhibitors of the orphan nuclear receptor subfamily 0, group B, member 1 (DAX1; NR0B1). [Related pubchem assays (depositor defined):AID504766, AID504790]. Type of assay: functional.
The test system of assay [16] is HEK293. The experiment in a line: cells. Type of assay: functional, cell-based. Conditions: Homo sapiens.
Assay [17] can be described thus: Luminescence Cell-Based Dose Response HTS to Identify Activators of Luciferase Translation or Activity in H4 […] Cells. [Related pubchem assays: 1829 (Project Summary), 1814 (Primary HTS)]. Type of assay: functional.
A short description of assay [18]: Luminescence Cell-Based Dose Confirmation HTS to Identify Activators of 5'UTR Stem-Loop Driven Alpha-Synuclein mRNA Translation in H4 Neuroglioblastoma Cells. [Related pubchem assays: 1829 (Project Summary), 1814 (Primary HTS)]. Type of assay: functional.
The test system of assay [19] is H4. The experiment in a line: Luminescence Cell-Based Dose Response HTS to Identify Activators of 5'UTR Stem-Loop Driven Prion Protein mRNA Translation in H4 Neuroglioblastoma Cells. [Related pubchem assays: 1829 (Project Summary), 1814 (Primary HTS)]. It counts as functional. Conditions: Homo sapiens.
Assay [20] addresses Beta-2 adrenergic receptor (Homo sapiens, UniProt P07550). The experiment in a line: beta2AR agonists driving receptor internalization, dose response, cell-based, FAP fluorogen, flow cytometry, cherry pick 1 (AID 588763). It counts as functional. Background: In flow cytometry, cells or beads pass a laser one at a time.
The nature of assay [21]: growth suppression of PTEN-null colon cells, dose response, cell-based, HCT116 PTEN knockout (AID 1047).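 Further: HCT116 colon tumor cells with PTEN knocked out; cells exposed to compound for 60 hours before readout; potency for loss of cell viability measured by luminescence.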 Type of assay: functional.
Assay [22] is described as follows: growth suppression of beta-catenin-knockout colon cells, dose response, cell-based, HCT116, human colon tumor (AID 1045).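 Further: HCT116 colon tumor cells with beta catenin knocked out; cells exposed to compound for 60 hours.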 Type of assay: functional.
For assay [23], the target named is T2, Microphthalmia-associated transcription factor (Homo sapiens, UniProt O75030).
T2 sequence (O75030 whole entry): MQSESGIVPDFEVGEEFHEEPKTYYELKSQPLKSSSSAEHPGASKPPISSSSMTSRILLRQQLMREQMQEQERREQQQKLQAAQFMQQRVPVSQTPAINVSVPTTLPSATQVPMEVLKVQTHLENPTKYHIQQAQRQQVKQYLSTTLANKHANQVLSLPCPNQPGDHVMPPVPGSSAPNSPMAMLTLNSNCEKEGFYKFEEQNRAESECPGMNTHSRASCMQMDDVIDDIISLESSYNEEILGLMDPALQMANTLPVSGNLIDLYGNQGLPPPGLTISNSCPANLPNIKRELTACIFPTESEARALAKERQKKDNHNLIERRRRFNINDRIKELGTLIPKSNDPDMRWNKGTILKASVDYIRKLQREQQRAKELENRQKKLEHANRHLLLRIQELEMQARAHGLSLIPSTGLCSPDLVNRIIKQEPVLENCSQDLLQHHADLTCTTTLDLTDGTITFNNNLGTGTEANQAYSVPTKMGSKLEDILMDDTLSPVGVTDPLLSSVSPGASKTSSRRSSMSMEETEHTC
Kind of assay: TRPM1 promoter luciferase signal decrease, dose response, MITF inhibitor project, cell-based, SK-MEL-5, cherry-picked, set 3 (AID 493073).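 Further: SK-MEL-5 melanoma cells with luciferase driven by the MITF target TRPM1 promoter.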 It counts as functional.

Assay [24] has as its system Vero. Kind of assay: cells. It counts as functional. The conditions noted are these: Chlorocebus sabaeus.
Assay [25] deals with Vero. The experiment in a line: cells. Type of assay: functional, cell-based. Conditions: Chlorocebus sabaeus.

Molecules are shown by their SMILES. Active and inactive are the calls of the source.

Sequence of Beta-2 adrenergic receptor (P07550 whole entry): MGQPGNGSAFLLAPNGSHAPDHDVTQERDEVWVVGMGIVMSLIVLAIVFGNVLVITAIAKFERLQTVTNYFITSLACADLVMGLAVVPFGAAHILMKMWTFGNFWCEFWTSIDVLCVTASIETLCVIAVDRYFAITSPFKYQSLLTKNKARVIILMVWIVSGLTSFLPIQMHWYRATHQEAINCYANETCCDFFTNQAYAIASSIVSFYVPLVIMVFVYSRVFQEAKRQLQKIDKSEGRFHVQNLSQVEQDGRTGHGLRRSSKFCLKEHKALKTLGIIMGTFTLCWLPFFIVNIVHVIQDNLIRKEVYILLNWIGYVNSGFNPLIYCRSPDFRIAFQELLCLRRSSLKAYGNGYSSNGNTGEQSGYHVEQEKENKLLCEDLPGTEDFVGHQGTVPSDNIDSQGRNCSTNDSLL
Sequence of Nuclear receptor subfamily 0 group B member 1 (P51843 whole entry): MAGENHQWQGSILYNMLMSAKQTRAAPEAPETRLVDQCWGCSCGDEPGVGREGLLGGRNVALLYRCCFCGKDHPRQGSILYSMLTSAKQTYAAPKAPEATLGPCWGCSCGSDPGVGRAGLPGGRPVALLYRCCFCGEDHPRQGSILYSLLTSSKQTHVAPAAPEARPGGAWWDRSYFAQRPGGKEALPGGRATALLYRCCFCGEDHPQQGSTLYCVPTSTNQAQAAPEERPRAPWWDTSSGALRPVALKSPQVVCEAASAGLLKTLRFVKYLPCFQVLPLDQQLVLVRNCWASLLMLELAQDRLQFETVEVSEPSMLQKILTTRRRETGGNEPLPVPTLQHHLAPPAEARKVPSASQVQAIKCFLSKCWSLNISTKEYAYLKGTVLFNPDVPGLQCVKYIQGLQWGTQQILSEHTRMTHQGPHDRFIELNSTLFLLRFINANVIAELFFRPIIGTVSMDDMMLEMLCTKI

What is called IC50 is the concentration that inhibits the measured activity by half. In general, EC50 refers to the concentration that produces a half-maximal response. Regarding `COc1ccccc1CN(Cc1cc2c(C)ccc(C)c2nc1O)Cc1nnnn1Cc1ccco1`, in assay [1], the IC50 is > 100 µM (inactive). For the same molecule, the EC50 in assay [2] and in [3] was > 59.6 µM (inactive) in each case.
For orientation: AC50 means the concentration at which the activity in the assay is half-maximal. For the molecule `C=CCn1c(O)nnc1Sc1ncc([N+](=O)[O-])s1`, the IC50 was 21.7 µM (inactive) in assay [4], 1.99 µM (active) in assay [5] and 1.32 µM (active) in assay [6]. Moreover, the AC50 in assay [7] is 1.85 µM (active).
For `CCN(CC(O)CON=C1c2ccccc2-c2ccccc21)S(=O)(=O)c1ccc(C)cc1` (stereo not given), the AC50 in [8] was 2.44 µM (active); in assay [9], 4.5 µM (active); in [10], 41.7 µM (active); in assay [11] it was 2.96 µM (active); in [13] it was 2.97 µM (active). Also, the EC50 was > 59.6 µM (inactive) in assay [2], 1.68 µM (active) in assay [12], > 59.6 µM (inactive) in [3] and > 60 µM (not active) in assay [14].
Consider `O=C(NCCN1CCCCC1)Nc1ccc([N+](=O)[O-])cc1`, for which the IC50 in [15] and in assay [16] was > 67.5 µM (inactive) throughout.
Consider `Cc1ccccc1OCC(=O)Nc1ccc2c(c1)OCCO2`, for which the IC50 in assay [15] and in assay [16] was > 67.5 µM (inactive) throughout. The EC50 in assay [17] is 4.75 µM (active); in [18], 51.8 µM (active); in assay [19], 75.2 µM (active).
`CC(=O)Nc1ccc(S(=O)(=O)NCCc2csc(-c3cccnc3)n2)cc1`: the EC50 in [20] was 0.162 µM (active).
The term CC50 denotes the concentration that lowers cell viability or growth by half. In the case of `Cc1ccccc1Cn1c(=N)n(CC(=O)c2ccc([N+](=O)[O-])cc2)c2ccccc21`, the 50% effective concentration (EC50) in [21] was 9.32 µM (active); in [22] it was 8.1 µM (active); in assay [20] it was 15.2 µM (inactive). For the same molecule, in assay [23], the AC50 is 5.63 µM (active). Further, the CC50 in [24] was 14 µM (active). Also, the IC50 in assay [25] is > 25 µM (active).
